# Test results taken from a melting point compilation (Tetko et al.; mined from patent text by program, amines drawn as free bases though some values may be those of a salt).
row,SMILES,melting point
1,CCCCCCCCCCCCCCCCCCNC(=O)c1ccccc1,85 to 87 °C
2,CN(C)N=Nc1cscc1C(N)=O,168 to 172 °C
3,C=CCOc1ccc(OC2CCCCO2)c2c1NC(=O)CC2 (centres undefined),111 to 113 °C
4,O=C(CCC(O)c1ccccc1)N1CCCCC1 (centres undefined),42 to 44 °C
5,O=C(O)CCCCCc1c([N+](=O)[O-])cc(O)c(O)c1[N+](=O)[O-],120 to 127 °C
6,CC(C)c1ccnc(C(=O)c2[nH]c3cc(Cl)ccc3c2CC(=O)O)c1,194 to 196 °C
7,Cn1ncc(C(=O)N2CCOCC2)c1C(=O)Nc1ccn2nc(-c3cccnc3)nc2c1,218 to 220 °C
8,CCOc1cc2c(Nc3cc(OC)c(Cl)cc3Cl)c(C#N)cnc2cc1Br,> 250 °C
9,CC(C)(C)c1ccc(C(=O)Nc2cn3cc(-c4cnco4)ccc3n2)cn1,251 to 253 °C
10,O=C1NCCN1Cc1ccncc1,153 to 155 °C
11,N#Cc1c(C(F)(F)F)[nH]c2cc(Cl)c(Cl)cc12,> 260 °C
12,O=C(O)c1ccc(-c2ccc3cc(CCO)c(C45CC6CC(CC(C6)C4)C5)cc3c2)cc1,276 to 278 °C
13,CS(=O)c1ccc2c(c1)C=C(C(=O)O)C(C(F)(F)F)O2 (centres undefined),148 to 151 °C
14,CNC(=O)CCC(=NNC(N)=S)c1ccccc1,205 to 207 °C
15,CC(O)c1c(NC(=O)C(C)(C)C)cccc1C(F)(F)F (centres undefined),172 °C
16,COc1cc(CN2CCN(C[C@@H](C)O)CC2)ccc1-c1nc2c(N[C@H]3[C@@H](C(N)=O)[C@@H]4C=C[C@H]3C4)c(Cl)cnc2[nH]1,157 to 159 °C
17,CN(C(=O)C(Cl)(Cl)Cl)c1nc(C(Cl)(Cl)Cl)ns1,223 °C
18,COc1cc2[nH]c(N3CCCN(C(=O)N4CCOCC4)CC3)nc(=O)c2c(C)c1OC,237 to 238 °C
19,CC(C)(C)OC(=O)N1CCC(c2n[nH]c(-c3ccccn3)n2)CC1,220 °C

row,SMILES,melting point
1,O=C(O)C(O)Cn1nnnc1S (centres undefined),143 to 146 °C
2,CCOc1nc(C(F)(F)F)cc(=O)n1-c1cc(OC(C)C)c(Br)cc1F,106 to 108 °C
3,CCOC(=O)c1cc([N+](=O)[O-])c(Nc2cccc(C)n2)c(S(N)(=O)=O)c1,203 to 204 °C
4,CC(=O)OCc1cccc(Cl)c1NS(=O)(=O)c1nc2nc(C)cc(C)n2n1,214 to 217 °C
5,CCOC(=O)CCCCCOc1cc(C=CC2=C(C#N)C(=C(C#N)C#N)OC2(C)C)ccc1N,164 °C
6,CCOC1CC2(C)C(CCC3C4CCCC4(C)CC(N(C)C)C32)CC1O (centres undefined),54 to 59 °C
7,Cc1ccc(Cl)c2nc3cccc(C(=O)NCCCN(C)CCCNC(=O)c4cccc5nc6c(Cl)ccc(C)c6nc45)c3nc12,200 to 202 °C
8,CCOC(=O)C(=CNc1ccc([N+](=O)[O-])cc1O)C(=O)c1cc(F)c(F)c(F)c1F,225 °C
9,Nc1cccc(Oc2ccc(Sc3ccc(Oc4cccc(N)c4)cc3)cc2)c1,112 to 113 °C
10,Cc1nc2c(cc1C(=O)NC(=N)N)CCCCC2,230 to 232 °C
11,CC(C)(CCCCOCCCCC(C)(C)C(=O)O)C(=O)O,49 to 51 °C
12,O=C(c1ccc2nonc2c1)N(CC(F)(F)F)C1CCOCC1,134 to 135 °C
13,OC(COCc1ncc[nH]1)c1ccc2sccc2c1 (centres undefined),128 to 129 °C
14,C=CCN1CCC23CCCCC2C1Cc1ccc(O)cc13 (centres undefined),197 to 198 °C
15,Cc1cc(Cl)c2[nH]nc(-c3ccc(Cl)cc3)c2n1,243 to 245 °C
16,OCc1cnc(Cl)cc1Cl,73 to 77 °C
17,CC(C)Cn1c(-c2c(F)cccc2F)c(Br)nc(Br)c1=O,125 to 126 °C
18,CC1CC(=O)NN=C1c1ccc2c(c1)SCC(=O)N2C (centres undefined),193 to 194 °C

# Next, values leading:
row,melting point,SMILES
1,102 to 103 °C,O=C(N[C@@H](Cc1ccccc1)[C@H]1CO1)OCc1ccccc1
2,118 to 121 °C,Cn1nc2c(-c3ccc(Cl)cc3Cl)cccc2c1-n1cnnc1
3,127 to 128 °C,CCOP(=O)(/C=C/c1cn(-c2ccccc2)nc1OCc1ccc(OCc2nc(-c3cccc(C(N)=O)c3)oc2C)c(OC)c1)OCC
4,95 to 98 °C,Cc1cccc(C)c1N1C(=N)N(c2cccc(C(F)(F)F)c2)CC1C (centres undefined)
5,156 to 158 °C,CC(C)(C)c1ccc(/C=N/OCCCOc2ccc(C(=O)O)c(NC(=O)c3ccc4ccccc4c3)c2)cc1
6,264 °C,N#Cc1c(N2CCN(C(=O)c3cccs3)CC2)c2ccccc2[nH]c1=O
7,104 to 105 °C,CCc1c(-c2ccc(OCc3ccccc3)cc2)cn2cccc(OCc3ccccc3)c12
8,60 to 63 °C,O=C1NC(c2ccccc2)CN1CCO (centres undefined)
9,177 to 178 °C,CCCNC(=O)Nc1c(C)c(C)c2c(c1C)C(c1ccc(C(C)C)cc1)CO2 (centres undefined)
10,195 to 197 °C,CCCc1nc(OC)c(NC(=O)N2CCN(c3cc(C)cc(C)c3)CC2)cc1C(=O)NC(C)C(=O)Nc1cc(CO)cc(Nc2c3ccccc3nc3ccccc23)c1 (centres undefined)
11,110 to 113 °C,CCN(CC)CCC1CCCN(C(=O)N2c3ccccc3NC(=O)c3cccnc32)C1 (centres undefined)
12,128 to 129 °C,Cc1c(OCCCCSCc2ccncc2)ccnc1CNc1cnc2ccccc2c1
13,114 to 116 °C,CN(C)C(=O)c1cc2ccccc2c(-c2ccccc2)n1
14,142 to 144 °C,C1=CC[C@@]2(Cc3ccccc3)CN(Cc3ccccc3)C[C@H]2C1 (relative stereo)
15,198 to 199 °C,Cc1ccc(Nc2nc(Cl)nc3ccccc23)cc1
16,277 to 278 °C,CCn1ncc2c(NCC3CCCCC3)c3cc(NC(C)=O)ccc3nc21

row,melting point,SMILES
1,275 to 278 °C,CN1C(=O)c2cccnc2Nc2cc([N+](=O)[O-])ccc21
2,202 °C,NC(=O)c1cccc(NC(=O)Cc2cccc(Br)c2)c1
3,253 to 254 °C,COC(=O)c1cc(NC(=O)c2ccc(Cl)cc2)c2cc(Cc3ccc(F)cc3)cnc2c1O
4,222 °C,COc1ccc(NC(=O)c2c(C)nc3ccccc3c2O)cc1
5,225 to 226 °C,CCCOc1ccc(S(=O)(=O)N2CCN(CC)CC2)cc1-c1nc2cc3ncn(Cc4ccccc4Cl)c3cc2c(=O)[nH]1
6,158 to 160 °C,O=C1CCC(N2C(=O)c3cccc(NCCOCc4ccccc4)c3C2=O)C(=O)N1 (centres undefined)
7,94 to 95 °C,CS[C@@H]1CC(=O)N(Cc2ccc(Oc3ccc(F)cc3)nc2)C1
8,> 250 °C,O=C(O)c1cc([N+](=O)[O-])cc2c1Nc1ccc(CCc3ccc(Cl)c(Cl)c3)cc1O2
9,75 to 78 °C,CCCCNCCCCCCCCSc1nc(-c2ccccc2)c(-c2ccccc2)[nH]1
10,163 °C,CC(=O)Oc1cccc(C(=Cc2ccccc2)c2cccc(OC(C)=O)c2OC(C)=O)c1OC(C)=O
11,196 °C,O=C(Nc1ccc(N2CCC(C(C(=O)O)c3ccccc3)CC2)cc1)c1ccccc1-c1ccc(C(F)(F)F)cc1 (centres undefined)
12,98 to 107 °C,CCOC(=O)c1ccc(NCCCc2ccc(OCc3ccccc3)cc2)cc1
13,110 to 111 °C,O=C(O)CCc1cccc2c1C[C@@H](CCCCc1ccccc1)O2
14,145 to 146 °C,N#CCCNC(=O)c1cccc(-c2cccc3c2OC(Cc2cccc(C(F)(F)F)c2)C3)c1 (centres undefined)
15,150 to 152 °C,CCOC(=O)Cc1ccc(C(=O)c2ccccc2)cc1N
16,59 to 60 °C,Cc1ccc(S(=O)(=O)OCCCC2CCN(C(=O)OCc3ccccc3)CC2)cc1
